According to US20160039842A1, “OXAZOLO[5,4-C]QUINOLIN-2-ONE COMPOUNDS AS BROMODOMAIN INHIBITORS” (EPIGENETIX, INC., priority 2013, published 2016):

These compounds were tested against T1, BRD4(BD1) (Homo sapiens, UniProt O60885) (assay: In Vitro Bromodomain Inhibition Assay (AlphaLISA, H4-tetraacetyl peptide)). Conditions: His-tagged BRD4(BD1) 200 nM, biotinylated H4-tetraacetyl peptide 200 nM, room temperature.
T1 construct: purchased BPS Bioscience
Type: binding
Procedure: To measure activity of bromodomain inhibitors, a His-epitope tagged BRD4 BD149-170 was purchased from BPS Bioscience. BRD4 binding and inhibition was assessed by monitoring the engagement of biotinylated H4-tetraacetyl peptide (H4K5/8/12/16; AnaSpec #64989-025) with the target using the AlphaLISA technology (Perkin-Elmer). Specifically, in a 384 well OptiPlate, BRD4(BD1) (200 nM final) was pre-incubated with either DMSO (final 1.0% DMSO) or a compound dilution series in DMSO. All reagents were diluted in assay buffer containing 50 mM HEPES (pH 7.4), 100 mM NaCl, 0.1% (w/v) BSA, and 0.05% (w/v) CHAPS. After a 30 minute incubation at room temperature, H4 peptide was added (200 nM final) and the reaction was incubated an additional 30 minutes at room temperature. Alpha. streptavidin donor beads and AlphaLISA nickel chelate acceptor beads were then added to a final concentration of 10 ug/mL each. After one hour, equilibration plates were read on an Envision instrument and IC50s calculated using a four parameter non-linear curve fit.
In the case of `COc1cc2c(cc1-c1c(C)noc1C)ncc1oc(=O)n(Cc3ccccc3S(C)(=O)=O)c12` [Example 49, 7-(3,5-Dimethylisoxazol-4-yl)-8-methoxy-1-[(2-methylsulfonylphenyl)methyl]oxazolo[5,4-c]quinolin-2-one], the IC50 is reported as less than 1000 nM.
For `COc1cc2c(cc1-c1c(C)noc1C)ncc1oc(=O)n(Cc3ccccc3)c12` [Example 2, 1-Benzyl-7-(3,5-dimethylisoxazol-4-yl)-8-methoxy-oxazolo[5,4-c]quinolin-2-one], the IC50 was less than 1000 nM.
In the case of `COc1cc2c(cc1-c1c(C)noc1C)nc(C)c1oc(=O)n([C@H](C)c3ccccc3)c12` [Example 36, 7-(3,5-Dimethylisoxazol-4-yl)-8-methoxy-4-methyl-1-[(1R)-1-phenylethyl]oxazolo[5,4-c]quinolin-2-one], the IC50 is reported as less than 1000 nM.
`COc1cc2c(cc1-c1c(C)noc1C)ncc1oc(=O)n([C@H](C)c3ccc(C#N)cc3)c12` [Example 43, 4-[(1R)-1-[7-(3,5-Dimethylisoxazol-4-yl)-8-methoxy-2-oxo-oxazolo[5,4-c]quinolin-1-yl]ethyl]benzonitrile] gave an IC50 of less than 1000 nM.
In the case of `CC[C@H](c1ccccc1)n1c(=O)oc2cnc3cc(-c4c(C)noc4C)c(OC)cc3c21` [Example 39, 7-(3,5-Dimethylisoxazol-4-yl)-8-methoxy-1-[(1R)-1-phenylpropyl]oxazolo[5,4-c]quinolin-2-one], the IC50 is reported as less than 1000 nM.
`COc1cc2c(cc1-c1c(C)noc1C)ncc1oc(=O)n([C@H](C)c3cccc(C#N)c3)c12` [Example 44, 3-[(1R)-1-[7-(3,5-Dimethylisoxazol-4-yl)-8-methoxy-2-oxo-oxazolo[5,4-c]quinolin-1-yl]ethyl]benzonitrile] gave an IC50 of less than 1000 nM.
Compound `COc1cc2c(cc1-c1c(C)noc1C)ncc1oc(=O)n(Cc3c(C)cccc3F)c12` [Example 37, 7-(3,5-Dimethylisoxazol-4-yl)-1-[(2-fluoro-6-methyl-phenyl)methyl]-8-methoxy-oxazolo[5,4-c]quinolin-2-one] has an IC50 of less than 1000 nM.
`COc1cc2c(cc1-c1c(C)noc1C)nc(CO)c1oc(=O)n(Cc3ccccc3)c12` [Example 33, 1-Benzyl-7-(3,5-dimethylisoxazol-4-yl)-4-(hydroxymethyl)-8-methoxy-oxazolo[5,4-c]quinolin-2-one] showed an IC50 of less than 1000 nM.
For `COc1cc2c(cc1-c1c(C)noc1C)ncc1oc(=O)n([C@H](C)c3ccc(Cl)cc3)c12` [Example 40, 1-[(1R)-1-(4-Chlorophenyl)ethyl]-7-(3,5-dimethylisoxazol-4-yl)-8-methoxy-oxazolo[5,4-c]quinolin-2-one], the IC50 was less than 1000 nM.
`CCOC(=O)c1nc2cc(-c3c(C)noc3C)c(OC)cc2c2c1oc(=O)n2Cc1ccccc1` [Example 1, Ethyl 1-benzyl-7-(3,5-dimethylisoxazol-4-yl)-8-methoxy-2-oxo-oxazolo[5,4-c]quinoline-4-carboxylate] was tested, and the IC50 was less than 1000 nM.
Work on `CCN(Cc1nc2cc(-c3c(C)noc3C)c(OC)cc2c2c1oc(=O)n2Cc1ccccc1)C(C)=O` [Example 48, N-[[1-Benzyl-7-(3,5-dimethylisoxazol-4-yl)-8-methoxy-2-oxo-oxazolo[5,4-c]quinolin-4-yl]methyl]-N-ethyl-acetamide] yielded an IC50 of less than 1000 nM.
Work on `COc1cc2c(cc1-c1c(C)noc1C)ncc1oc(=O)n(Cc3ccccc3C#N)c12` [Example 50, 2-[[7-(3,5-Dimethylisoxazol-4-yl)-8-methoxy-2-oxo-oxazolo[5,4-c]quinolin-1-yl]methyl]benzonitrile] yielded an IC50 of less than 1000 nM.
Work on `COc1cc2c(cc1-c1c(C)noc1C)nc(C(=O)O)c1oc(=O)n([C@H](C)c3ccccc3)c12` [Example 51, 7-(3,5-Dimethylisoxazol-4-yl)-8-methoxy-2-oxo-1-[(1R)-1-phenylethyl]oxazolo[5,4-c]quinoline-4-carboxylic acid] yielded an IC50 of less than 1000 nM.
For `COc1cc2c(cc1-c1c(C)noc1C)ncc1oc(=O)n([C@H](C)c3cccc(Cl)c3)c12` [Example 45, 1-[(1R)-1-(3-Chlorophenyl)ethyl]-7-(3,5-dimethylisoxazol-4-yl)-8-methoxy-oxazolo[5,4-c]quinolin-2-one], the IC50 was less than 1000 nM.
With `COc1cc2c(cc1-c1c(C)noc1C)ncc1oc(=O)n([C@H](C)c3ccccn3)c12` [Example 3, 7-(3,5-Dimethylisoxazol-4-yl)-8-methoxy-1-[(1R)-1-(2-pyridyl)ethyl]oxazolo[5,4-c]quinolin-2-one] the IC50 was less than 1000 nM.
Work on `COc1cc2c(cc1-c1c(C)noc1C)nc(CN1CCOCC1)c1oc(=O)n(Cc3ccccc3)c12` [Example 41, 1-Benzyl-7-(3,5-dimethylisoxazol-4-yl)-8-methoxy-4-(morpholinomethyl)oxazolo[5,4-c]quinolin-2-one] yielded an IC50 of less than 1000 nM.
`CCOC(=O)c1nc2cc(-c3c(C)noc3C)c(OC)cc2c2c1oc(=O)n2[C@H](C)c1ccccc1` [Example 34, Ethyl 7-(3,5-Dimethylisoxazol-4-yl)-8-methoxy-2-oxo-1-[(1R)-1-phenylethyl]oxazolo[5,4-c]quinoline-4-carboxylate] gave an IC50 of less than 1000 nM.
In the case of `COc1cc2c(cc1-c1c(C)noc1C)nc(CO)c1oc(=O)n([C@H](C)c3ccccc3)c12` [Example 35, 7-(3,5-Dimethylisoxazol-4-yl)-4-(hydroxymethyl)-8-methoxy-1-[(1R)-1-phenylethyl]oxazolo[5,4-c]quinolin-2-one], the IC50 is reported as less than 1000 nM.
`COc1cc2c(cc1-c1c(C)noc1C)ncc1oc(=O)n(Cc3ccccc3Cl)c12` [Example 18, 1-[(2-Chlorophenyl)methyl]-7-(3,5-dimethylisoxazol-4-yl)-8-methoxy-oxazolo[5,4-c]quinolin-2-one] showed an IC50 of less than 1000 nM.
With `COc1cc2c(cc1-c1c(C)noc1C)nc(CN(C)C)c1oc(=O)n([C@H](C)c3ccccc3)c12` [Example 42, 4-(Dimethylaminomethyl)-7-(3,5-dimethylisoxazol-4-yl)-8-methoxy-1-[(1R)-1-phenylethyl]oxazolo[5,4-c]quinolin-2-one] the IC50 was less than 1000 nM.
`CCNCc1nc2cc(-c3c(C)noc3C)c(OC)cc2c2c1oc(=O)n2Cc1ccccc1` [Example 52, 1-Benzyl-7-(3,5-dimethylisoxazol-4-yl)-4-(ethylaminomethyl)-8-methoxy-oxazolo[5,4-c]quinolin-2-one] was tested, and the IC50 was less than 1000 nM.
Work on `COc1cc2c(cc1-c1c(C)noc1C)ncc1oc(=O)n(Cc3ccc(OC(F)(F)F)cc3)c12` [Example 54, 7-(3,5-Dimethylisoxazol-4-yl)-8-methoxy-1-[[4-(trifluoromethoxy)phenyl]methyl]oxazolo[5,4-c]quinolin-2-one] yielded an IC50 of less than 1000 nM.
Work on `COc1cc2c(cc1-c1c(C)noc1C)ncc1oc(=O)n([C@H](C)c3ccccc3)c12` [Example 12A, 7-(3,5-Dimethylisoxazol-4-yl)-8-methoxy-1-[(1R)-1-phenylethyl]oxazolo[5,4-c]quinolin-2-one] yielded an IC50 of less than 1000 nM.
In the case of `COc1cc2c(cc1-c1c(C)noc1C)ncc1oc(=O)n(Cc3ccc(C)cc3)c12` [Example 46, 7-(3,5-Dimethylisoxazol-4-yl)-8-methoxy-1-(p-tolylmethyl)oxazolo[5,4-c]quinolin-2-one], the IC50 is reported as less than 1000 nM.
Compound `COCc1nc2cc(-c3c(C)noc3C)c(OC)cc2c2c1oc(=O)n2[C@H](C)c1ccccc1` [Example 38, 7-(3,5-Dimethylisoxazol-4-yl)-8-methoxy-4-(methoxymethyl)-1-[(1R)-1-phenylethyl]oxazolo[5,4-c]quinolin-2-one] has an IC50 of less than 1000 nM.
`COc1cc2c(cc1-c1c(C)noc1C)nc(CN(C)C)c1oc(=O)n(Cc3ccccc3)c12` [Example 47, 1-Benzyl-4-(dimethylaminomethyl)-7-(3,5-dimethylisoxazol-4-yl)-8-methoxy-oxazolo[5,4-c]quinolin-2-one] showed an IC50 of less than 1000 nM.
